Source: article PMC3914206

Columns and labels:
panel of 442 kinases [1] = target: T1, panel of 442 kinases (Homo sapiens, UniProt Q9NWZ3); assay type: binding; conditions: Compound Concentration 10 µM
T1 construct: purchased KINOMEscan
T1 sequence (Q9NWZ3 1-460): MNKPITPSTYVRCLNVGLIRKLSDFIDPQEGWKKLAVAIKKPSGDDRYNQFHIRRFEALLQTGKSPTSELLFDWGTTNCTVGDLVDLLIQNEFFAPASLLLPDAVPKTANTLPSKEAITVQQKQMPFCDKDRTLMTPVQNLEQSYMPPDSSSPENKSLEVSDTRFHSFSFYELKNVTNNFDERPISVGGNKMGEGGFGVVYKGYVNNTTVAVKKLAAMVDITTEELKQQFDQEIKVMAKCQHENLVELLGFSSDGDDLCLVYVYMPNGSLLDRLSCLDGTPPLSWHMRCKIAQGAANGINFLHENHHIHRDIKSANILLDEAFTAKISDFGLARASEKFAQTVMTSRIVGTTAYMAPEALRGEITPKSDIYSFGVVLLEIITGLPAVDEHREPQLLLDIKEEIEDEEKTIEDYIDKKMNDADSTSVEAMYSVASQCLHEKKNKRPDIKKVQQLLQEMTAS
From the text: (§1) We assessed the selectivity of members of this scaffold using the KINOMEscan methodology across a near comprehensive panel of 442 kinases [[18,27]].

panel of 442 kinases [2] = target: T2, panel of 442 kinases (Homo sapiens, UniProt P21709); assay type: binding; conditions: Compound Concentration 10 µM
T2 construct: purchased KINOMEscan
T2 sequence (P21709 26-976): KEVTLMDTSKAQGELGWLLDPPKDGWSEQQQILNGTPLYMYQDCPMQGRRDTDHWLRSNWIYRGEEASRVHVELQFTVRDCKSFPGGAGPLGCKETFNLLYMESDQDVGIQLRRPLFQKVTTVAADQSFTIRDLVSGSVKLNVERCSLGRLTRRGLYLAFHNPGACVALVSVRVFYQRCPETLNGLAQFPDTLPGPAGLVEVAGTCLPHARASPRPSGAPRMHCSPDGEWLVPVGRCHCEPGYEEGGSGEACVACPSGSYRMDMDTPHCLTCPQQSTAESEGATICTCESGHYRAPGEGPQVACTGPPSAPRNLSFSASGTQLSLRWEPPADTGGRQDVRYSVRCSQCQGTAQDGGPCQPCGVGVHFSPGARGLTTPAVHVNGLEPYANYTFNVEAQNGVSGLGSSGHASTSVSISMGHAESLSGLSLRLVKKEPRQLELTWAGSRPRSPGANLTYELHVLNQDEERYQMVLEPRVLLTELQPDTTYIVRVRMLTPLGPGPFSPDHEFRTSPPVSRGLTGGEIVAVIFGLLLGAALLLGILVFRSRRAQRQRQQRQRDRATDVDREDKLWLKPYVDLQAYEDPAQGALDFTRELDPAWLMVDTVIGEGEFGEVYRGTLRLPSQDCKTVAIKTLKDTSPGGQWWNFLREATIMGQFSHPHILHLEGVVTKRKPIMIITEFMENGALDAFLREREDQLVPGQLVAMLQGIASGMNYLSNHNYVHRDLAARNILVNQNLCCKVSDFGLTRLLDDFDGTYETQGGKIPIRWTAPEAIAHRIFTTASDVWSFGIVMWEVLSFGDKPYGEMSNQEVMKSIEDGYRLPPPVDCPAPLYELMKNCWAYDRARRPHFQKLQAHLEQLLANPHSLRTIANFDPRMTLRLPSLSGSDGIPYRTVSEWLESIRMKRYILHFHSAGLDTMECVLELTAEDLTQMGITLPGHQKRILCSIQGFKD
From the text: as §1

Row | SMILES | KINOMEscan: IRAK4 (panel of 442 kinases [1]) | KINOMEscan: EPHA1 (panel of 442 kinases [2])
1 | COc1cc(C(=O)N2CCC(N3CCN(C)CC3)CC2)ccc1Nc1ncc2c(n1)N(C1CCCC1)c1ccccc1C(=O)N2C [Compound 25, 11-cyclopentyl-2-((2-methoxy-4-(4-(4-methylpiperazin-1-yl)piperidine-1-carbonyl)phenyl)amino)-5-methyl-5H-benzo[e]pyrimido[5,4-b][1,4]diazepin-6(11H)-one] | 100 | 100
2 | CCOc1cc(C(=O)N2CCC(N3CCN(C)CC3)CC2)ccc1Nc1ncc2c(n1)N(C1CCCC1)c1ccccc1C(=O)N2C [Compound 26] | 100 | 98
3 | COc1cc(C(=O)N2CCC(N3CCN(C)CC3)CC2)ccc1Nc1ncc2c(n1)N(C)c1ccccc1C(=O)N2C [15 (LRRK2-IN-1)] | 83 | 100
